Reference: US9394295B2, “Antibacterial homopiperidinyl substituted 3,4-dihydro-1H-[1,8]naphthyridinones” (Janssen Sciences Ireland UC, priority 2011, dated 2016)
Values after ≈ are worked out from the molar mass of the structure shown. Where two headings read alike, the source gives them in different places.

Assays:
[1] = tested on: S. aureus; test: Antibacterial susceptibility testing: IC90 determination with 10% human serum (STA + 10% HS); assay type: cell-based; conditions: Staphylococcus aureus; S. aureus with human serum at final concentration of 10%; read-out: STA + 10% HS (361.169) IC90
Description: The following bacteria were used: Staphylococcus aureus ATCC 29213, methicillin-resistant Staphylococcus aureus (MRSA) ATCC 700788 and Escherichia coli ATCC 35218. The bacteria used in this study were grown overnight in flasks containing 100 ml Mueller-Hinton broth (Difco cat. nr. 0757-17) in sterile de-ionized water, with shaking, at 37° C. Stocks were store at −70° C. until use.
Bacteria were incubated on a tryptic soy agar plate containing 5% sheep blood (Becton Dickinson cat. nr. 254053) for 18-24 hours at 35° C. in aerobic conditions (first passage). For the second passage, fresh Mueller-Hinton broth is inoculated with 5-10 colonies and grown overnight at 35° C. until turbidity (reaching log-phase) in aerobic conditions is reached. The bacterial suspension is then adjusted to 0.5 McFarland density and further diluted 1:100 in Mueller Hinton broth medium. This is used as inoculum.
MIC assays were performed by the broth microdilution method in a 96-well format (flat-bottom microtitre plates) with a final volume of 0.1 ml Mueller Hinton broth containing two-fold serial dilutions of compounds and inoculated with 5×10^5 CFU/ml of bacteria (standard inoculum size according to CLSI guidelines). Inhibitors are typically varied over the range of 63 to 0.49 μM. The final DMSO concentration in the assay was 1.25% (maximum tolerable DMSO concentration=6%). In the assays where the effect of human serum on the activity of the compounds against S. aureus was tested, human serum was added at a final concentration of 10%. The plates were incubated at 35° C. for 16-20 hours. At the end of incubation the bacterial growth was quantified fluorometrically. For this, resazurin was added to all wells and the plates were re-incubated. The incubation time is dependent on the type of bacteria. A change in color from blue to pink indicated the growth of bacteria. The fluorescence was read in computer-controlled fluorometer (Fluoroskan Ascent FL, Labsystems) at an excitation wavelength 540 nm and an emission wavelength of 590 nm. The % growth inhibition achieved by the compounds was calculated according to standard methods. The IC90 (expressed in μg/ml) was defined as the 90% inhibitory concentration for bacterial growth. A panel of reference compounds were simultaneously tested for QC approval.
The results are depicted in the table D2 below (STA+10% HS).

[2] = Thermodynamic solubility / solubility in aqueous solution; assay type: physicochemical; conditions: thermodynamic from solid, 4 days at ambient temperature
Description: The pH solubility profiling was carried out at ambient temperature for a period of 4 days. A saturation solubility study was carried out in order to determine maximum solubility in a particular buffer solution. The compound was added to respective buffer solution until saturation point is reached. This was followed by shaking the flask for 4 days at ambient temperature. After 4 days, the solutions were filtered and injected on UPLC and the concentration was determined using a generic HPLC method.

[3] = tested on: E. coli tolC mutant; test: MIC broth microdilution (CLSI), E. coli tolC mutant; assay type: cell-based; conditions: Escherichia coli
Description: (§1) Minimum Inhibitory Concentrations (MICs) were determined in accordance with the Clinical and Laboratory Standards Institute (CLSI) methodology against aerobic bacteria (CLSI M07-A8) (see Clinical and Laboratory Standards Institute. 2009. Methods for dilution antimicrobial susceptibility tests for bacteria that grow aerobically. CLSI document M07-A8, Vol. 29, No. 2.) by the broth microdilution method with cation-adjusted Mueller-Hinton broth (CA-MHB) medium for the majority of organisms, except for Haemophilus influenza, where Haemophilis test medium (HTM) broth was used. Descriptions of the individual organisms can be found in the table. Where possible, ATCC standard strains were tested.
(§2) The inoculum density for the susceptibility testing was standardized to give a final inoculum of approximately 5×10^5 CFU/mL.
(§3) Stock solutions of the compounds were prepared in DMSO at concentrations of 1 mg/mL. Linezolid was prepared in DMSO at a concentration of 2 mg/mL. Stock solutions of all compounds were diluted into CA-MHB to give a range of two-fold dilutions, depending upon the sensitivity of the organism being tested.

[4] = molecular target: T1, S. aureus ATCC 29213 FabI (Staphylococcus aureus, UniProt Q6GI75); test: Staphylococcus aureus FabI enzyme inhibition assay; assay type: biochemical; conditions: 30 minutes at room temperature, NADH consumption
T1 sequence (Q6GI75 1-256): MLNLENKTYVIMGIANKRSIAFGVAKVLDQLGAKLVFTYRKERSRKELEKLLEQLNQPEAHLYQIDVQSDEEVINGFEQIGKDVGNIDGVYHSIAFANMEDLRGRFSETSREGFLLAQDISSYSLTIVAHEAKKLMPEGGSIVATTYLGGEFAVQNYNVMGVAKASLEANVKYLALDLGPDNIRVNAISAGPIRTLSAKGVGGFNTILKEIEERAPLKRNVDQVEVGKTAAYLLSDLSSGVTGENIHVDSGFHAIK
Description: FabI enzyme inhibition assays were carried out in half-area, 384-well microtitre plates. Compounds were evaluated in 40-μl assay mixtures containing 100 mM NaADA, pH 6.5 (ADA=N-[2-acetamido]-2iminodiacetic acid), 250 μM crotonoyl-CoA, 625 μM NADH and 50 μg/ml S. aureus ATCC 29213 FabI Inhibitors were typically varied over the range of 50 to 0.39 μM. The reaction mixtures were incubated for 30 minutes at room temperature and the reaction was stopped by adding 200 mM Tris buffer (pH 9.0) to create a pH-shift. The consumption of NADH was monitored by measuring the change in absorbance at […]. By comparing sample readings to those of negative (absence of compound) and positive (absence of enzyme) controls, the percent inhibition of enzymatic activity of the compounds was determined. A best-fit curve is fitted by a minimum of squares method. From this an IC50-value (expressed in μg/ml), resulting in 50% inhibition of enzymatic activity, was obtained.

[5] = tested on: S. aureus ATCC 29213; test: MIC broth microdilution (CLSI), S. aureus ATCC 29213; assay type: cell-based; conditions: Staphylococcus aureus, ATCC 29213 / MSSA, reference strain MSSA
Description: as §1, §2, §3

[6] = tested on: S. aureus NRS119; test: MIC broth microdilution (CLSI), S. aureus NRS119; assay type: cell-based; conditions: Staphylococcus aureus, LZD-R
Description: as §1, §2, §3

[7] = tested on: S. aureus NRS120; test: MIC broth microdilution (CLSI), S. aureus NRS120; assay type: cell-based; conditions: Staphylococcus aureus, LZD-R
Description: as §1, §2, §3

[8] = tested on: S. aureus NRS121; test: MIC broth microdilution (CLSI), S. aureus NRS121; assay type: cell-based; conditions: Staphylococcus aureus, LZD-R
Description: as §1, §2, §3

[9] = aqueous buffer, Buffer pH 2, read-out: Solubility, Buffer pH 2
[10] = aqueous buffer, Buffer pH 4, read-out: Solubility, Buffer pH 4
[11] = aqueous buffer, Buffer pH 7.4, read-out: Solubility, Buffer pH 7.4
[12] = aqueous with cosolvent or surfactant or cyclodextrin, 10% HP-β-CD buffer pH 4, read-out: Solubility, 10% HP-β-CD buffer pH 4
[13] = aqueous with cosolvent or surfactant or cyclodextrin, 10% HP-β-CD buffer pH 7.4, read-out: Solubility, 10% HP-β-CD buffer pH 7.4
[14] = aqueous with cosolvent or surfactant or cyclodextrin, 20% HP-β-CD buffer pH 4, read-out: Solubility, 20% HP-β-CD buffer pH 4
[15] = aqueous with cosolvent or surfactant or cyclodextrin, 20% HP-β-CD buffer pH 7.4, read-out: Solubility, 20% HP-β-CD buffer pH 7.4

Work on `O=C1CCc2cc(/C=C/C(=O)N3CCC=C(c4ccccc4)CC3)cnc2N1` [Co. No. 2] yielded an IC90 [1] of 0.33 µg/mL, a solubility at 4 days [2, 9] of 2 µg/mL (≈ 5.36 µM) and a solubility at 4 days [2, 10] of under 2 µg/mL. It also gave a solubility at 4 days [2, 11] of 3 µg/mL (≈ 8.03 µM), a solubility at 4 days [2, 12] of 1150 µg/mL (≈ 3080 µM) and a solubility at 4 days [2, 13] of 1080 µg/mL (≈ 2900 µM). For the same compound, the solubility at 4 days [2, 14] was 980 µg/mL (≈ 2620 µM), the solubility at 4 days [2, 15] was 1050 µg/mL (≈ 2820 µM) and the MIC90 [3] was 0.25 µg/mL (≈ 0.669 µM). For the same compound, the IC50 [4] was 884 nM, the MIC90 [5] was 0.06 µg/mL (≈ 0.161 µM) and the MIC90 [6] was 0.125 µg/mL (≈ 0.335 µM). The MIC90 [7] was 0.06 µg/mL (≈ 0.161 µM) and the MIC90 [8] was 0.125 µg/mL (≈ 0.335 µM).
Compound `COc1ccc(F)cc1C1=CCCN(C(=O)/C=C/c2cnc3c(c2)CCC(=O)N3)CC1` [Co. No. 27] has an IC90 [1] of 0.33 µg/mL, a solubility at 4 days [2, 9] of under 10 µg/mL and a solubility at 4 days [2, 10] of under 10 µg/mL. The solubility at 4 days [2, 11] was under 10 µg/mL, the solubility at 4 days [2, 12] was 220 µg/mL (≈ 522 µM) and the solubility at 4 days [2, 13] was 250 µg/mL (≈ 593 µM). For the same compound, the solubility at 4 days [2, 14] was 440 µg/mL (≈ 1040 µM), the solubility at 4 days [2, 15] was 590 µg/mL (≈ 1400 µM) and the MIC90 [3] was over 8 µg/mL. For the same compound, the IC50 [4] was 1070 nM, the MIC90 [5] was 0.06 µg/mL (≈ 0.142 µM) and the MIC90 [6] was 0.06 µg/mL (≈ 0.142 µM). For the same compound, the MIC90 [7] was 0.125 µg/mL (≈ 0.297 µM) and the MIC90 [8] was 0.06 µg/mL (≈ 0.142 µM).
